Experimental data: article PMC10385850, “Modified Hederagenin Derivatives Demonstrate Ex Vivo Anthelmintic Activity against Fasciola hepatica” (Pharmaceutics, 2023)
“Also recorded” adds a separate entry of the source. Read-outs that look alike come from different tables or passages of the source.

How the values were obtained:
[1] = test system: F. hepatica newly excysted juveniles (NEJs), Italian strain; assay: Ex vivo screen against newly excysted juveniles (NEJs), phenotype and motility scoring; assay type: cell-based, Fasciola hepatica; details: for Average motility of 25 NEJs with 95% CI, 24 hours / Average phenotype of 25 NEJs with 95% CI, 24 hours / Average motility of 25 NEJs with 95% CI, 48 hours / Average phenotype of 25 NEJs with 95% CI, 48 hours / Average motility of 25 NEJs with 95% CI, 72 hours / Average phenotype of 25 NEJs with 95% CI, 72 hours / Activity against NEJs (first screen), in words: 10 µM; for Average motility of 25 NEJs with 95% CI, 24 hours / Average motility of 25 NEJs with 95% CI, 48 hours / Average motility of 25 NEJs with 95% CI, 72 hours: motility score 1 good/normal to 5 no movement; for Average phenotype of 25 NEJs with 95% CI, 24 hours / Average phenotype of 25 NEJs with 95% CI, 48 hours / Average phenotype of 25 NEJs with 95% CI, 72 hours: ultrastructure score 1 normal to 6 dead or dissolved; for Activity against NEJs (first screen), in words: 72 h co-culture
Procedure: […] The NEJs were excysted from metacercariae and assayed at 10 μM (in 0.1% DMSO) final concentration alongside negative (0.1% DMSO) and positive (10 μM TCBZ, in 0.1% DMSO) controls as previously described. The MC and IVL compound series were screened separately.
The motility (1—good/normal; 2—moderate; 3—low; 4—very little; 5—no movement) and phenotypic (ultrastructural changes) scores were noted according to a previously described scoring matrix (Figure S1 and Table S2).

[2] = test system: wild strain adult F. hepatica; assay: Ex vivo motility assay on adult liver flukes (wild strain); assay type: cell-based, Fasciola hepatica; details: 40 µM; for Effect on wild strain adult fluke motility, in words: 72 h; for Average motility of 4 parasites with 95% CI at 72 hour time point: wild strain adult flukes, score 1 good/normal to 6 no movement or dead
Procedure: Due to the high number of active molecules and a shortage of Italian strain adult liver flukes, the eleven hit compounds were screened for 72 h at 40 µM (in 0.4% DMSO) on wild strain adult F. hepatica (n = 4/condition) of unknown provenance (Table S3). The protocol for culturing and scoring (motility) the activity of these compounds was previously described (1—good/normal; 2—moderate; 3—resting (less than 10 s pulses of body and head), 4—apathetic (less than 2 s pulses of body and head), 5—paralysis and 6–no movement or dead worms). Six compounds were deemed active in these assays and were selected for further screening.

[3] = test system: immature F. hepatica flukes (Italian strain); assay: Ex vivo motility assay on immature liver flukes (Italian strain), single concentration and dose response; assay type: cell-based, Fasciola hepatica; details: 40 µM; for Average motility of 4 parasites with 95% CI at 24 hour time point: score 1 normal to 5 no movement or death; for Effect on immature fluke motility, in words: by 72 h
Procedure: The six selected compounds (at 40 µM in 0.4% DMSO) were evaluated on immature flukes (n = 4/condition) at 24, 48 and 72 h (Table S4). The protocol for culturing and scoring (motility) of these life stages have been previously described. Due to restricted numbers of immature worms, a dose response assay was conducted only for MC042. Here, immature worms (n = 2/concentration tested) were screened against descending concentrations of MC042 (40 µM, 13.3 µM and 4.4 µM); motility scores were recorded at 24, 48 and 72 h (Table S5). The scoring pattern used is identical to that described for NEJs.

[4] = test system: adult F. hepatica flukes (Italian strain); assay: Ex vivo dose response motility assay on adult liver flukes (Italian strain); assay type: cell-based, Fasciola hepatica; details: for Average motility of 3 parasites treated with 4.4 µM, 24 hours / Average motility of 3 parasites treated with 4.4 µM, 48 hours / Average motility of 3 parasites treated with 4.4 µM, 72 hours / Average motility of 3 parasites treated with 13.3 µM, 24 hours / Average motility of 3 parasites treated with 13.3 µM, 48 hours / Average motility of 3 parasites treated with 13.3 µM, 72 hours / Average motility of 3 parasites treated with 40 µM, 24 hours / Average motility of 3 parasites treated with 40 µM, 48 hours / Average motility of 3 parasites treated with 40 µM, 72 hours: adult flukes Italian strain, score 1 to 6; for EC50: adult flukes, motility
Procedure: The collection, ex vivo culturing and screening of adult liver fluke (Italian strain; n = 3/condition) was previously described. Dose response assays (40 µM, 13.3 µM and 4.4 µM) were conducted for MC014, MC042, MC035, MC055 and MC062 with motility scores recorded at 24, 48 and 72 h (Table S6).

[5] = test system: Madin–Darby bovine kidney (MDBK) cells; assay: MTT cell viability assay on MDBK cells; assay type: cell-based
Procedure: MTT cell viability assays were performed on Madin–Darby bovine kidney (MDBK cells) for the five selected hederagenin derivatives (MC014, MC035, MC042, MC055 and MC062) using final concentrations of 100 μM, 75 μM, 50 μM, 25 μM, 10 μM, 5 μM and 1 μM (in 1% DMSO). Negative (1% v/v Triton X-100, Sigma-Aldrich, UK) and positive (1% v/v DMSO or media only) controls were included. The protocol was followed as previously described. Absolute EC50 values were calculated from the corrected absorbance of replicates by non-linear regression, after log transformation of concentrations and data normalization (where DMSO values represents 0% inhibition and TX-100 values represent 100% inhibition) using GrapPad Prism 8.

[6] = 48 h, immature flukes, score 1 to 5
[7] = 72 h, immature flukes, score 1 to 5

| SMILES | Average motility of 25 NEJs with 95% CI, 24 hours ([1]; 24 h) | Average phenotype of 25 NEJs with 95% CI, 24 hours ([1]; 24 h) | Average motility of 25 NEJs with 95% CI, 48 hours ([1]; 48 h) | Average phenotype of 25 NEJs with 95% CI, 48 hours ([1]; 48 h) | Average motility of 25 NEJs with 95% CI, 72 hours ([1]; 72 h) | Average phenotype of 25 NEJs with 95% CI, 72 hours ([1]; 72 h) | Activity against NEJs (first screen), in words [1] | Effect on wild strain adult fluke motility, in words [2] | Average motility of 4 parasites with 95% CI at 72 hour time point [2] | Average motility of 4 parasites with 95% CI at 24 hour time point ([3]; 24 h, immature flukes) | Average motility of 4 parasites with 95% CI at 48 hour time point [3, 6] | Average motility of 4 parasites with 95% CI at 72 hour time point [3, 7] | Effect on immature fluke motility, in words [3] | Average motility of 3 parasites treated with 4.4 µM, 24 hours [4] | Average motility of 3 parasites treated with 4.4 µM, 48 hours [4] | Average motility of 3 parasites treated with 4.4 µM, 72 hours ([4]; 72 h) | Average motility of 3 parasites treated with 13.3 µM, 24 hours [4] | Average motility of 3 parasites treated with 13.3 µM, 48 hours [4] | Average motility of 3 parasites treated with 13.3 µM, 72 hours ([4]; 72 h) | Average motility of 3 parasites treated with 40 µM, 24 hours [4] | further results |
| --- | --- | --- | --- | --- | --- | --- | --- | --- | --- | --- | --- | --- | --- | --- | --- | --- | --- | --- | --- | --- | --- |
| CC1(C)CC[C@]2(C(=O)O)CC[C@]3(C)C(=CC[C@@H]4[C@@]5(C)CC[C@@H]6OC(C)(C)OC[C@@]6(C)[C@@H]5CC[C@]43C)[C@@H]2C1 [MC014] | 5.00 (5.0;5.0) | 4.12 (3.5;4.6) | 5.00 (5.0;5.0) | 6.00 (6.0;6.0) | 5.00 (5.0;5.0) | 6.00 (6.0;6.0) | maximal alterations to both phenotype/ultrastructure and motility | no motility after 72 h; also recorded: performed very well | 6.00 (6.0;6.0) | 5.00 (5.0;5.0) | 5.00 (5.0;5.0) | 5.00 (5.0;5.0) | paralyzed the assayed immature flukes | 1.00 (1.0;1.0) | 1.00 (1.0;1.0) | 3.00 (1.8; 4.1) | 1.33 (0.6;1.9) | 1.66 (0.3;2.9) | 3.33 (2.6;3.9) | 3.33 (2.6;3.9) | Average motility of 3 parasites treated with 40 µM, 48 hours [4]: 4.00 (4.0;4.0); Average motility of 3 parasites treated with 40 µM, 72 hours ([4]; 72 h): 5.33 (4.0;6.6); EC50 ([4]; 24 h exposure, read-out: EC50 with 95% CI on Adult Flukes (motility), 24 hour): 13.5 µM; EC50 ([4]; 72 h, read-out: EC50 with 95% CI on Adult Flukes (motility), 72 hour): 9.3 µM; Effect on adult fluke (Italian strain) movement, in words ([4]; dose response, MC042 statement at 40 μM after 72 h): Decreased movement; CC50 with 95% CI on MDBK cells (cytotoxicity) ([5]; MDBK cells, MTT, 24 h exposure): Undefined ^c; Effect on MDBK cell proliferation, in words ([5]; dose response titration up to 100 μM): modest proliferative effect; Cytotoxicity on MDBK cells, in words ([5]; highest concentration tested 100 μM): not cytotoxic even at the highest concentration tested |
| CC(=O)OC[C@]12CCC(C)(C)CC1C1=CCC3[C@@]4(C)CC[C@H](O)[C@@](C)(CO)C4CC[C@@]3(C)[C@]1(C)CC2 (stereo partly drawn) [MC037, ((4aS,6aS,6bR,9R,10S,12aR)-10-Hydroxy-9-(hydroxymethyl)-2,2,6a,6b,9,12a-hexamethyl-1,3,4,5,6,6a, 6b,7,8,8a,9,10,11,12,12a,12b,13,14b-octadecahydropicen-4a(2H)-yl)methyl acetate] | 5.00 (5.0;5.0) | 6.00 (6.0;6.0) | 5.00 (5.0;5.0) | 6.00 (6.0;6.0) | 5.00 (5.0;5.0) | 6.00 (6.0;6.0) | maximal alterations to both phenotype/ultrastructure and motility | less severe motility defects | 3.25 (2;4.4) | – | – | – | – | – | – | – | – | – | – | – | – |
| CC(=O)OCC1(C)C(OC(C)=O)CCC2(C)C1CCC1(C)C2CC=C2C3CC(C)(C)CCC3(NC(=O)N3CCCC3)CCC21C (stereo not shown) [MC056] | 5.00 (5.0;5.0) | 6.00 (6.0;6.0) | 5.00 (5.0;5.0) | 6.00 (6.0;6.0) | 5.00 (5.0;5.0) | 6.00 (6.0;6.0) | maximal alterations to both phenotype/ultrastructure and motility | less severe motility defects; also recorded: limited activity | 4.25 (3.3;5.1) | – | – | – | – | – | – | – | – | – | – | – | – |
| CC(=O)OC[C@@]1(C)C2CC[C@]3(C)C(CC=C4C5CC(C)(C)CC[C@]5(NC(=O)N5CCCC5)CC[C@]43C)[C@@]2(C)CC[C@@H]1O (stereo partly drawn) [MC057, ((3S,4R,6aR,6bS,8aS,14bR)-3-Hydroxy-4,6a,6b,11,11,14b-hexamethyl-8a-(pyrrolidine-1-carbox-amido)-1,2,3,4,4a,5,6,6a,6b,7,8,8a,9,10,11,12,12a,14,14a, 14b-icosahydropicen-4-yl)-methyl acetate] | 5.00 (5.0;5.0) | 6.00 (6.0;6.0) | 5.00 (5.0;5.0) | 6.00 (6.0;6.0) | 5.00 (5.0;5.0) | 6.00 (6.0;6.0) | maximal alterations to both phenotype/ultrastructure and motility | partial paralysis | 5.00 (5.0;5.0) | 3.50 (2.5;4.4) | 4.25 (3.3;5.1) | 4.50 (3.5;5.4) | least active in this series | – | – | – | – | – | – | – | – |
| CSc1nc2cc(Cl)c(Oc3cccc(Cl)c3Cl)cc2[nH]1 [Triclabendazole, reference compound] | – | – | – | – | – | – | – | – | 6.00 (6.0;6.0) | 5.0 (5.0,5.0) | 5.0 (5.0,5.0) | 5.0 (5.0,5.0) | completely immobile by 72 h | 1.00 (1.0; 1.0) | 1.00 (1.0; 1.0) | 1.00 (1.0; 1.0) | 1.00 (1.0;1.0) | 1.33 (0.6;1.9) | 2.00 (0.8; 3.1) | 2.33 (1.6; 2.9) | Average motility of NEJs with 95% CI, 24 hours (positive control) ([1]; 40µM, 24 h, 50 NEJs, score 1 to 5): 5.00 (5.0;5.0); Average phenotype of NEJs with 95% CI, 24 hours (positive control) ([1]; 40µM, 24 h, 50 NEJs, score 1 to 6): 6.00 (6.0;6.0); Average motility of NEJs with 95% CI, 48 hours (positive control) ([1]; 40µM, 48 h, 50 NEJs, score 1 to 5): 5.00 (5.0;5.0); Average phenotype of NEJs with 95% CI, 48 hours (positive control) ([1]; 40µM, 48 h, 50 NEJs, score 1 to 6): 6.00 (6.0;6.0); Average motility of NEJs with 95% CI, 72 hours (positive control) ([1]; 40µM, 72 h, 50 NEJs, score 1 to 5): 5.00 (5.0;5.0); Average phenotype of NEJs with 95% CI, 72 hours (positive control) ([1]; 40µM, 72 h, 50 NEJs, score 1 to 6): 6.00 (6.0;6.0); Average motility of 2 parasites treated with 40 µM, 24 hours ([3]; 24 h, immature flukes, dose response, score 1 to 5): 5.00 (5.0; 5.0); Average motility of 2 parasites treated with 40 µM, 48 hours ([3]; 48 h, immature flukes, dose response, score 1 to 5): 5.00 (5.0; 5.0); Average motility of 2 parasites treated with 40 µM, 72 hours ([3]; 72 h, immature flukes, dose response, score 1 to 5): 5.00 (5.0; 5.0); Average motility of 3 parasites treated with 40 µM, 48 hours [4]: 5.66 (5.0; 6.3); Average motility of 3 parasites treated with 40 µM, 72 hours ([4]; 72 h): 6.00 (6.0; 6.0) |
